Source: US12686690B2, “Macrocyclic urea orexin receptor agonists” (Merck Sharp & Dohme LLC, priority 2020, dated 2026)

Molecular target: T1, hOX2R (Homo sapiens, UniProt O43614)
T1 construct: expressed in transfected cells; host or cells: CHO cells (G418 selection)
T1 sequence (O43614 1-444): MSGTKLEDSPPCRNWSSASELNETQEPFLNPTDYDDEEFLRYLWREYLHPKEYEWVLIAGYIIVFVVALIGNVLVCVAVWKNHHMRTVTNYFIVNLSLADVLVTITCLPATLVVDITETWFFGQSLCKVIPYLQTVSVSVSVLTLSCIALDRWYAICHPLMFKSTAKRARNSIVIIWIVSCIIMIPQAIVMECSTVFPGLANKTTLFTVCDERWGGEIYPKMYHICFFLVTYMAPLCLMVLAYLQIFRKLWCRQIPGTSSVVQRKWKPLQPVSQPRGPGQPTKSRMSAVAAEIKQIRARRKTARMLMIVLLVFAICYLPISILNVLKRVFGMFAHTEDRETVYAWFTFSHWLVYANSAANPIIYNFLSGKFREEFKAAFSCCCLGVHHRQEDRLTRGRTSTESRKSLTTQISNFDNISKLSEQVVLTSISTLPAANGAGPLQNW
Experiment: hOX2R IPone assay (orexin receptor agonism)
Format: cell-based
Settings: IPone readout; for hOX2R_Ipone max %act: maximal activation; for EC50: orexin receptor agonist, read-out: hOX2R_IPone EC50

Compound	hOX2R_Ipone max %act	EC50
CCN1C(=O)NC(c2nc(C)cs2)CCCCCOc2nc(cn3ccnc23)-c2cc(ncc2OC)[C@H]1C (stereo partly drawn) [Example 218, (3R,E)-4-ethyl-2^5-methoxy-3-methyl-7-(4-methylthiazol-2-yl)-13-oxa-4,6-diaza-1(6,8)-imidazo[1,2-a]pyrazina-2(4,2)-pyridinacyclotridecaphan-5-one]	102.4%	0.9 nM
CCN1C(=O)NCCC2CCC(C2)Oc2nc(cn3ccnc23)-c2cccc(c2)C1C [Example 1B, (10R,E)-9-ethyl-10-methyl-3-oxa-7,9-diaza-2(6,8)-imidazo[1,2-a]pyrazina-1(1,3)-benzena-4(1,3)-cyclopentanacyclodecaphan-8-one]	99.5%	126 nM
CCN1C(=O)NC(CCC(F)(F)F)C(C)CCCOc2nc(cn3ccnc23)-c2cccc(c2)[C@H]1C (single isomer, unassigned) [Example 42B]	99.1%	156 nM
CCN1C(=O)N[C@@H](CCC(F)(F)F)CCCCCOc2cc(nn3c(C)cnc23)-c2cc(ncc2OC)[C@H]1C [Example 168, (3R,7R,E)-4-ethyl-25-methoxy-13,3-dimethyl-7-(3,3,3-trifluoropropyl)-13-oxa-4,6-diaza-1(6,8)-imidazo[1,2-b]pyridazina-2(4,2)-pyridinacyclotridecaphan-5-one]	99.31%	2.33 nM
CCN1C(=O)N[C@@H](CCC(F)(F)F)CCCCCOc2nc(cn3ncnc23)-c2cc(ncc2OC)[C@H]1C [Example 82, (12R,16R)-13-ethyl-8-methoxy-12-methyl-16-(3,3,3-tri-fluoropropyl)-12,13, 16,17,18,19,20,21-octahydro-6,23-(azeno)-11,7-(metheno)[1,2,4]tria-zolo[5,1-c][1,4,10,13, 15]oxatetraazacyclo-henicosin-14(15H)-one]	99.62%	2.2 nM
CCN1C(=O)N[C@@H](CCC(F)(F)F)CCOCCOc2nc(cn3ncnc23)-c2c(OC)cnc(c2F)C1C (stereo partly drawn) [Example 179, (7S,E)-4-ethyl-23-fluoro-25-methoxy-3-methyl-7-(3,3,3-trifluoropropyl)-10,13-dioxa-4,6-diaza-1(6,8)-[1,2, 4]triazolo[1,5-a]pyrazina-2(4,2)-pyridinacyclotridecaphan-5-one]	100.8%	8.24 nM
CCN1C(=O)NC2CN(CCCOc3nc(cn4ccnc34)-c3cc(ncc3OC)[C@H]1C)CC2C(F)(F)F (single isomer, unassigned) [Example 212]	99.48%	2.79 nM
CCN1C(=O)N[C@@H](CCC(F)(F)F)CCCCCOc2nc(cn3ccnc23)-c2ccnc(c2)[C@@H]1C [Example 30, (12S,16R)-13-ethyl-12-methyl-16-(3,3,3-trifluoropropyl)-12,13,16,17,18, 19,20,21-octa-hydro-6,23-(azeno)-11,7-(metheno)imidazo [2,1-c][1,4,10, 13,15]oxatetra-azacyclohenicosin-14(15H)-one]	98.5%	51.1 nM
(3R,E)-4-ethyl-25-methoxy-3- methyl-7-(2,2,3,3- tetrafluoropropyl)-13-oxa-4,6- diaza-1(6,8)-imidazo[1,2-a] pyrazina-2(4,2)-pyridina- cyclotridecaphan-5-one [Example 187]	104.1%	0.62 nM
CCN1C(=O)N[C@@H](CCC(F)(F)F)COCCCOc2nc(cn3ncnc23)-c2ccnc(c2F)[C@H]1C (single isomer, unassigned) [Example 175]	93.8%	9.06 nM
CCN1C(=O)NCCCCCOc2nc(cn3ncnc23)-c2cc(ncc2OC)C1C(F)(F)F (stereo not drawn) [Example 35, 13-ethyl-8-methoxy-12-(trifluoromethyl)-12,13,15,16,17,18,19,20-octahydro-14H-6,22-(azeno)-11,7-(metheno) [1,2,4]triazolo[5,1-c][1,4,10,13,15]oxatetra-azacycloicosin-14-one]	82.8%	4710 nM
CCN1C(=O)N[C@@H](CCC(F)(F)F)CCCCCOc2cc(cc3ccnn23)-n2nc(cc2C2CC2)C1C (mixture of isomers) [Example 210, (16E,22E,7R)-25-cyclopropyl-4-ethyl-3-methyl-7-(3,3,3-trifluoropropyl)-21H-13-oxa-4,6-diaza-1(5,7)-pyrazolo[1,5-a]pyridina-2(1,3)-pyrazolacyclotridecaphan-5-one]	102.8%	5.24 nM
CCN1Cc2cccc(c2)-c2cn3ccnc3c(n2)OCCCC[C@H](CCC(F)(F)F)NC1=O [Example 43, (16R)-13-ethyl-16-(3,3,3-trifluoropropyl)-12,13,15,16,17,18,19,20-octahydro-14H-6,22-(azeno)-11,7-(metheno)imidazo[2,1-c][1,4,13,15]oxatriaza-cycloicosin-14-one]	97.6%	49.9 nM
CCN1Cc2ccc(OC)c(c2)-c2cn3ccnc3c(n2)OCCCC[C@H](CCC(F)(F)F)NC1=O [Example 44, (16R)-13-ethyl-8-methoxy-16-(3,3,3-trifluoropropyl)-12,13,15,16,17,18,19,20-octahydro-14H-6,22-(azeno)-11,7-(metheno)imidazo[2,1-c][1,4,13,15]oxatriaza-cycloicosin-14-one]	100.4%	1 nM
CCN1Cc2cnc(OC)c(c2)-c2cn3ccnc3c(n2)OCCCCC[C@H](CCC(F)(F)F)NC1=O [Example 51]	99.5%	0.6 nM
CCN1C(=O)N[C@@H](C)CCCC(F)(F)COc2nc(cn3ccnc23)-c2cc(ncc2OC)[C@H]1C [Example 221, (3R,7S,E)-4-ethyl-11,11-difluoro-25-methoxy-3,7-dimethyl-13-oxa-4,6-diaza-1(6,8)-imidazo[1,2-a]pyrazina-2(4,2)-pyridinacyclotridecaphan-5-one]	90.75%	408 nM
CCN1C(=O)N[C@@H](CC(F)(F)F)CCCCCOc2nc(cn3ccnc23)-c2ccnc(c2)[C@H]1C [Example 103, (12R,16R)-13-ethyl-12-methyl-16-(2,2,2-trifluoroethyl)-12,13,16,17,18,19,20, 21-octahydro-6,23-(azeno)-11,7-(metheno)imidazo[2,1-c][1,4,10,13,15] oxatetraazacycloheni-cosin-14(15H)-one]	100.8%	13.1 nM
CCN1C(=O)NCCCOCCOc2nc(cn3ccnc23)-c2cccc(c2)[C@H]1C [Example 14, (12R)-13-ethyl-12-methyl-12,13,15,16,17,18, 20,21-octahydro-14H-6,23-(azeno)-11,7-(metheno)imidazo [2,1-f][1,4,7,16, 18]dioxatriaza-cyclohenicosin-14-one]	101%	9.7 nM

Continued, values first:

hOX2R_Ipone max %act	EC50	Compound
99.1%	24.2 nM	CCN1C(=O)N[C@@H](CCC(F)(F)F)CCCCCOc2nc(cn3ccnc23)-c2cc(c(C)cn2)C1C (single isomer, unassigned) [Example 92B]
97%	548 nM	CCC1CCCCCOc2nc(cn3ccnc23)-c2cc(ncc2OC)[C@@H](C)N(CC)C(=O)N1 (single isomer, unassigned) [Example 52A]
101.2%	0.6 nM	CCN1C(=O)NC(CC2CC2)CCCCCOc2nc(cn3ccnc23)-c2cc(ncc2OC)[C@H]1C (single isomer, unassigned) [Example 55B]
101%	1 nM	CCN1C(=O)NC(CCOC)CCCCCOc2nc(cn3ccnc23)-c2cc(ncc2OC)[C@H]1C (single isomer, unassigned) [Example 56B]
100.1%	2.4 nM	CCN1C(=O)N[C@@H](CCC(F)(F)F)CCCCCOc2nc(cn3ccnc23)-c2cc(C)nc(c2)[C@H]1C [Example 107B, (12R,16R)-13-ethyl-9,12-dimethyl-16-(3,3,3-trifluoropropyl)-12,13,16,17,18,19,20, 21-octahydro-6,23-(azeno)-11,7-(metheno)imidazo[2,1-c][1,4,10,13,15] oxatetraazacycloheni-cosin-14(15H)-one]
67.1%	10100 nM	CCN1C(=O)N[C@@H](CCC(F)(F)F)CCCCCOc2nc(cn3ccnc23)-c2cc(c(C)cn2)C1C (single isomer, unassigned) [Example 92A]
99.5%	17.3 nM	CCN1C(=O)N[C@@H](CCC(F)(F)F)CCCCCOc2nc(cn3ccnc23)-c2cc(nc3ccoc23)C1C (single isomer, unassigned) [Example 74A]
99.08%	183 nM	CCN1C(=O)N[C@@H](CCC(F)(F)F)CCCCCOc2nc(cn3ccnc23)-c2cc(cc(C)n2)[C@@H]1C [Example 118A, (12S,16R)-13-ethyl-9,12-dimethyl-16-(3,3,3-trifluoropropyl)-12,13,16,17,18,19,20,21-octahydro-6,23-(azeno)-11,7-(metheno)imidazo[2,1-c][1,4,8,13,15]oxatetraazacyclohenicosin-14(15H)-one]
98.9%	370 nM	CCN1C(=O)N[C@@H](CCC(F)(F)F)CCCCCOc2cc(cc3ccnn23)-c2nc(cnc2OC)C1C (single isomer, unassigned) [Example 80A]
